Patent publication US20170050945A1, “COMPOSITIONS AND METHODS FOR THE TREATMENT OF SARCOIDOSIS” (INSMED INCORPORATED, priority 2015, published 2017)

Key:
[1] = Lung to plasma MPA ratio after inhaled dosing of MPS, MMF or mono-C16MP in mice; type: in vivo; conditions: inhalation, C57BL/6 mice, 0-6 h post-dose
Protocol: Studies to determine the lung to plasma ratio obtained by inhalation of mycophenolate sodium (MPS), mycophenolate mofetil (MMF), and hexadecyl mycophenolate (mono-C16MP) were conducted.
In each study group, C57BL/6 mice were given MPS, MMF or mono-C16MP by inhalation and the lung and plasma mycophenolic acid (MPA) concentrations were measured at t=0, 0.5, 1, 2, 4, and 6 h post-dose.
For each mouse in the study, the lung to plasma MPA ratios were calculated; the individual calculated ratios were averaged for each treatment group and the average values were plotted, shown in FIG. 6.

[2] = target: T1, Human Inosine 5′-Monophosphate Dehydrogenase 1 (IMPDH) (Homo sapiens, UniProt P20839); experiment: Inhibition of human inosine 5′-monophosphate dehydrogenase (IMPDH assay kit); type: biochemical
T1 construct: purchased R&D Systems 8904DH
T1 sequence (P20839 whole entry): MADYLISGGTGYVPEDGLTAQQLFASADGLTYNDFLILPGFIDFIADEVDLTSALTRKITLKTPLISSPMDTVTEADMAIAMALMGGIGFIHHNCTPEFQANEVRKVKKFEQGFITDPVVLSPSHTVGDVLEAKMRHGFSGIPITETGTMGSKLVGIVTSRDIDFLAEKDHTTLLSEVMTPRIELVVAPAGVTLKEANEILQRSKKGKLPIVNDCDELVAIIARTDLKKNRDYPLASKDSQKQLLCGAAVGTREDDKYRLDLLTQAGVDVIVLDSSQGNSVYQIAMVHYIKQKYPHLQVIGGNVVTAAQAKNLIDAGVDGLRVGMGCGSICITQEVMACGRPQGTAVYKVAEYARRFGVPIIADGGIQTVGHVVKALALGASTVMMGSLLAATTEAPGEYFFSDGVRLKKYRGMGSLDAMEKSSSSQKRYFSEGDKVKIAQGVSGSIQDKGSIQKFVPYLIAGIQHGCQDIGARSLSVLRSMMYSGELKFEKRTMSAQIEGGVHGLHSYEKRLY
Text: Human Inosine 5′-Monophosphate Dehydrogenase 1 (IMPDH) catalyzes the nicotinamide adenine dinucleotide (NAD)-dependent oxidation of inosine-5′-monophosphate (IMP) to xanthosine-5′-monophosphate (XMP), which is the committed step in de novo guanosine nucleotide biosynthesis. B and T lymphocytes depend on IMPDH activity to generate the guanosine nucleotide levels needed to initiate a proliferative response to mitogen or antigen.
A comparison of the ability of MPA and hexadecyl mycophenolate (mono-C16MP) to inhibit IMPDH was undertaken.
IMPDH (R&D Systems 8904DH) was incubated with mycophenolic acid (MPA) and, separately, mono-C16MP at concentrations ranging from about 0.015 to 15 μM. The IMPDH activity was determined using a BMR Service IMPDH assay kit (E-119).
Inhibition of IMPDH was calculated as a percentage of IMPDH activity in the absence of MPA.

[3] = test system: THP-1 derived human macrophages; experiment: Cytotoxicity toward human THP-1 derived macrophages, CellTox green assay; type: cell-based
Protocol: (§1) THP-1 cells were cultured in media with 50 ng/mL phorbol myristate acetate (PMA) for 24 h and then in fresh media without PMA for an additional 24 h. […] The well plates were treated with mycophenolate sodium at concentrations ranging from 0.03 to 10 μm and incubated for a period for 4 h. After this period, LPS was added to each well plate at a concentration of 100 pg/mL and the LPS-, mycophenolate-treated well plates were incubated for 16 h. After 16 h, the cell supernatants were collected for TNF measurement and the remaining macrophages were assessed for cytotoxicity. TNF concentrations were assayed using a human TNF ELISA kit available from ThermoFisher. Cytotoxicity was determined using the CellTox green assay available from Promega.
(§2) Inhibition of TNF-α production was calculated as a percentage of LPS-stimulated TNF production in the absence of mycophenolate sodium.

[4] = test system: LPS-stimulated TNF-α production in rat alveolar macrophages (NR8383); experiment: Inhibition of LPS-stimulated TNF-α production in rat alveolar macrophages (NR8383), TNF ELISA; type: cell-based; conditions: Macrophage, NR8383 cells, co-treated with 25 ng/mL LPS, 20 h
Protocol: (§3) Rat alveolar macrophages (NR8383) were co-treated with 25 ng/mL lipopolysaccharide (LPS) and mycophenolate sodium at concentrations ranging from 0.15 to about 15 μm for a period of 20 h. After this period, the cell supernatants were collected for TNF measurement and the remaining macrophages were assessed for cytotoxicity. TNF concentrations were assayed using a rat TNF ELISA kit available from ThermoFisher. Cytotoxicity was determined using the CellTox green assay available from Promega.
as §2

[5] = test system: rat alveolar macrophages (NR8383); experiment: Cytotoxicity toward rat alveolar macrophages (NR8383), CellTox green assay; type: cell-based; conditions: NR8383 cells, any concentration tested (0.15 to about 15 μm), 20 h
Protocol: as §3, §2

[6] = test system: LPS-stimulated TNF-α production in THP-1 derived human macrophages; experiment: Inhibition of LPS-stimulated TNF-α production in human THP-1 derived macrophages, TNF ELISA; type: cell-based; conditions: 4 h pre-incubation, then 100 pg/mL LPS for 16 h
Protocol: as §1, §2

SMILES: CCCCCCCCCCCCCCCCOC(=O)CC/C(C)=C/Cc1c(O)c2c(c(C)c1OC)COC2=O [mono-C16MP, hexadecyl mycophenolate]
- Lung to plasma exposure ratio of MPA compared to the ratio obtained with MPS or MMF [1]: higher lung to plasma exposure ratio
- Inhibition of IMPDH ([2]; about 0.015 to 15 μM tested): does not inhibit IMPDH in a concentration-dependent manner

SMILES: COc1c(C)c2c(c(O)c1C/C=C(\C)CCC(=O)O)C(=O)OC2 [mycophenolate sodium]
- Cytotoxicity ([3]; 3 μM, P<0.05): 6.6%
- Cytotoxicity ([3]; 10 μM, P<0.05): 8.9%
- Cytotoxicity ([3]; concentrations <3 μM): no significant cytotoxicity
- Emax [4]: 54%
- IC50 [4]: 1500 nM
- Cytotoxicity [5]: no significant cytotoxicity
- Emax [6]: 67%
- IC50 [6]: 1400 nM

SMILES: COc1c(C)c2c(c(O)c1C/C=C(\C)CCC(=O)O)C(=O)OC2 [MPA, (4E)-6-(4-hydroxy-6-methoxy-7-methyl-3-oxo-1,3-dihydro-2-benzofuran-5-yl)-4methylhex-4-enoic acid]
- IC50 [2]: 140 nM
